In patent US11542488B2, “Sortase synthesized chimeric antigen receptors” (Novartis AG, priority 2014, dated 2023):
Read-outs that look alike come from different tables or passages of the source.

How the values were obtained:
huCAR19 CAR T cells = test: In vivo proliferation of humanized CD19 CAR T cells with and without RAD001 dosing; set-up: species or system NSG mice
Method: (§1) Tumor implantation: NALM6-luc cells were grown and expanded in vitro in RPMI supplemented with 10% heat inactivated fetal bovine serum. The cells were then transferred to a 15 ml conical tube and washed twice with cold sterile PBS. NALM6-luc cells were then counted and resuspended at a concentration of 10×10^6 cells per milliliter of PBS. The cells were placed on ice and immediately (within one hour) implanted in the mice. NALM6-luc cells were injected intravenously via the tail vein in a 100 μl volume, for a total of 1×10^6 cells per mouse.
CAR T cell dosing: Mice were administered 5×10^6 CAR T cells 7 days after tumor implantation. Cells were partially thawed in a 37 degree Celsius water bath and then completely thawed by the addition of 1 ml of cold sterile PBS to the tube containing the cells. The thawed cells were transferred to a 15 ml falcon tube and adjusted to a final volume of 10 mls with PBS. The cells were washed twice at 1000 rpm for 10 minutes each time and then counted on a hemocytometer. T cells were then resuspended at a concentration of 50×10^6 CAR T cells per ml of cold PBS and kept on ice until the mice were dosed. The mice were injected intravenously via the tail vein with 100 μl of the CAR T cells for a dose of 5×10^6 CAR T cells per mouse. Eight mice per group were treated either with 100 μl of PBS alone (PBS), or humanized CD19 CAR T cells.
(§2) RAD001 dosing: A concentrated micro-emulsion of 50 mg equal to 1 mg RAD001 was formulated and then resuspended in D5W (dextrose 5% in water) at the time of dosing. Mice were orally dosed daily (via oral gavage) with 200 μl of the desired doses of RAD001.
Based on these doses, huCAR19 CAR T cells were dosed with and without RAD001 to determine the proliferative ability of these cells. The highest dose used was 3 mg/kg based on the levels of RAD001 in the blood 24 hours after dosing. As the concentration of RAD001 was above 10 nM 24 hours after the final dose of RAD001, several lower doses of RAD001 were used in the in vivo study with CAR T cells. The CAR T cells were dosed IV one day prior to the start of the daily oral RAD001 dosing. Mice were monitored via FACS for T cell expansion.

NALM6-luc tumors = test: Tumor growth of NALM6-luc cells in NSG mice with daily RAD001 dosing; format: in vivo; details: daily oral dosing of RAD001 alone, 0.3, 1, 3 and 10 mg/kg
Method: NALM6-luc cells: The NALM6 human acute lymphoblastic leukemia (ALL) cell line was developed from the peripheral blood of a patient with relapsed ALL. The cells were then tagged with firefly luciferase. These suspension cells grow in RPMI supplemented with 10% heat inactivated fetal bovine serum.
Mice: 6 week old NSG (NOD.Cg-PrkdcscidIl2rgtm1Wjl/SzJ) mice were received from the Jackson Laboratory (stock number 005557).
as §1, §2

[1] = Pharmacokinetics of RAD001 in the blood of NSG mice with NALM6 tumors; format: in vivo; details: for concentration at 24 h: mouse, blood
Method: as §2
PK analysis: Mice were dosed daily with RAD001 starting 7 days post tumor implantation. Dosing groups were as follows: 0.3 mg/kg, 1 mg/kg, 3 mg/kg, and 10 mg/kg. Mice were bled on days 0 and 14 following the first and last dose of RAD001, at the following time points for PK analysis: 15 minutes, 30 minutes, 1 hour, 2 hours, 4 hours, 8 hours, 12 hours, and 24 hours.

huCART19 cells = test: 4 day co-culture proliferation assay of CARTs with Nalm-6 cells in the presence of RAD001; format: cell-based, human
Text: A humanized, anti-human CD19 CAR (huCART19) lentiviral transfer vector was used to produce the genomic material packaged into VSVg pseudotyped lentiviral particles. The amino acid and nucleotide sequence of the humanized anti-human CD19 CAR (huCART19) is CAR 1, ID 104875, described in PCT publication, WO2014/153270, filed Mar. 15, 2014, and is designated SEQ ID NOs. 85 and 31 therein.
Lentiviral transfer vector DNA is mixed with the three packaging components VSVg env, gag/pol and rev in combination with lipofectamine reagent to transfect Lenti-X 293T cells. Medium is changed after 24 h and 30 h thereafter, the virus-containing media is collected, filtered and stored at −80° C. CARTs are generated by transduction of fresh or frozen naïve T cells obtained by negative magnetic selection of healthy donor blood or leukopak. T cells are activated by incubation with anti-CD3/anti-CD28 beads for 24 h, after which viral supernatant or concentrated virus (MOI=2 or 10, respectively) is added to the cultures. The modified T cells are allowed to expand for about 10 days. The percentage of cells transduced (expressing the CARs on the cell surface) and the level of CAR expression (relative fluorescence intensity, Geo Mean) are determined by flow cytometric analysis between days 7 and 9. The combination of slowing growth rate and T cell size approaching ˜350 fL determines the state for T cells to be cryopreserved for later analysis.
To evaluate the functionality of CARTs, the T cells are thawed and counted, and viability is assessed by Cellometer. The number of CAR-positive cells in each culture is normalized using non-transduced T cells (UTD). The impact of RAD001 on CARTs was tested in titrations with RAD001, starting at 50 nM. The target cell line used in all co-culture experiments is Nalm-6, a human pre-B cell acute lymphoblastic leukemia (ALL) cell line expressing CD19 and transduced to express luciferase.
For measuring the proliferation of CARTs, T cells are cultured with target cells at a ratio of 1:1. The assay is run for 4 days, when cells are stained for CD3, CD4, CD8 and CAR expression. The number of T cells is assessed by flow cytometry using counting beads as reference.

- concentration at 24 h ([1]; NSG, lowest dose tested (0.3 mg/kg), oral, read-out: RAD001 concentration in the blood 24 hours after dosing): > 10 nM
- stability in the blood of tumor bearing mice ([1]; daily oral dosing, NSG mice): fairly stable
- RAD001 concentration in the blood 24 hours after dosing ([1]; day 14, lowest dose tested (0.3 mg/kg), oral): above 10 nm
- concentration at 24 h ([1]; 0.3 mg/kg, NSG mice, daily oral dosing, read-out: concentration of RAD001 24 hours after the final dose): > 10 nM
Compound: CO[C@H]1C[C@@H]2CC[C@@H](C)[C@@](O)(O2)C(=O)C(=O)N2CCCC[C@H]2C(=O)O[C@H]([C@H](C)C[C@@H]2CC[C@@H](OCCO)[C@H](OC)C2)CC(=O)[C@H](C)/C=C(\C)[C@@H](O)[C@@H](OC)C(=O)[C@H](C)C[C@H](C)/C=C/C=C/C=C/1C [RAD001, (1R,9S,12S,15R,16E,18R,19R,21R,23S,24E,26E,28E,30S,32S,35R)-1,18-dihydroxy-12-{(1R)-2-[(1S,3R,4R)-4-(2-hydroxyethoxy)-3-methoxycyclohexyl]-1-methylethyl}-19,30-dimethoxy-15,17,21,23,29,35-hexamethyl-11,36-dioxa-4-aza-tricyclo[30.3.1.04,9]hexatriaconta-16,24,26,28-tetraene-2,3,10,14,20-pentaone]
- CAR T cell proliferation in vivo versus normal level of huCAR19 proliferation (huCAR19 CAR T cells; 0.003 mg/kg RAD001 daily): enhancement in CAR T cell proliferation
- enhanced proliferation, CD4+ CAR T cells compared with CD8+ CAR T cells (huCAR19 CAR T cells; lowest doses of RAD001): more evident and prolonged
- proliferation of CD8+ CAR T cells in vivo (huCAR19 CAR T cells; lowest doses of RAD001): enhanced proliferation can be seen at early time points
- proliferation of the CAR T cells in vivo (huCAR19 CAR T cells; lowest doses of RAD001, daily oral): enhanced proliferation
- growth of NALM6-luc tumors (NALM6-luc tumors): did not have an impact on the growth of NALM6-luc tumors
- proliferation of huCART19 cells versus no RAD001 (huCART19 cells; 0.0032 nM RAD001): higher than observed without the addition of RAD001
- proliferation of huCART19 cells versus no RAD001 (huCART19 cells; 0.016 nM RAD001): higher than observed without the addition of RAD001
- RAD001 concentration at which huCART19 cells expanded (huCART19 cells; 4 day co-culture with Nalm-6, ratio 1:1): less than 0.016 nM
- proliferation of CAR-expressing, transduced T cells (huCART19 cells; low doses of RAD001, cell culture system, FIG. 12): enhanced
